# Biological target: Nanoluciferase-BRD9 fusion protein (Homo sapiens (Human), UniProt Q9H8M2)
# Assay: SYO1 BRD9 NanoLuc degradation assay
# Assay type: cell-based
# Conditions: Table 5A; SYO-1 cells expressing 3×FLAG-NLuc-BRD9, 6 hours; read-out: SYO1 BRD9-NanoLuc degradation IC50
# In short: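 Degradation was read as loss of nanoluciferase signal (Nano-Glo) after 6 h compound exposure in a stable SYO-1 line carrying 3×FLAG-NLuc-BRD9 (8000 cells/well). Normalised between DMSO (high) and a 1 μM known BRD9 degrader (low).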
# Chain of Nanoluciferase-BRD9 fusion protein (Q9H8M2 whole entry, the tested form may be a part): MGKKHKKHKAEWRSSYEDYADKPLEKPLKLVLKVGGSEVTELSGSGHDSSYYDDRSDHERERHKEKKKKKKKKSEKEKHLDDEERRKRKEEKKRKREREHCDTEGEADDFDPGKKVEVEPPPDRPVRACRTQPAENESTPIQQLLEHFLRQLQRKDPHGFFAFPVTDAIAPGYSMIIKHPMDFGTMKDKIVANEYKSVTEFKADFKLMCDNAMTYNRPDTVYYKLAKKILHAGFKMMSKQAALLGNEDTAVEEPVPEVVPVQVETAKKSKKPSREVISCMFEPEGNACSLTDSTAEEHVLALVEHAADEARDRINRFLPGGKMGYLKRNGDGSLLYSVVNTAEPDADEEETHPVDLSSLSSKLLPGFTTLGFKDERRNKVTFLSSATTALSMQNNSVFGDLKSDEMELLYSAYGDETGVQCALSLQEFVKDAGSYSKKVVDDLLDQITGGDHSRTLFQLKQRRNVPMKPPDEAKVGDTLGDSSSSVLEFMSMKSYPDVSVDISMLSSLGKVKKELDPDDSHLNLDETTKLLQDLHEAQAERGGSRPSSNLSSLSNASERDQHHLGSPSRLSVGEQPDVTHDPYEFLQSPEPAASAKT
row,DC50 [nM],SMILES
1,< 10,"COc1cc(-c2cn(C)c(=O)c3cnccc23)cc(OC)c1CN1CCC2(CC1)CN(CCCCCOc1ccc3c(c1)C(=O)N(C1CCC(=O)NC1=O)C3=O)CCO2 (centres unmarked) [Compound D47, 5-[[5-(9-[[2,6-dimethoxy-4-(2-methyl-1-oxo-2,7-naphthyridin-4-yl)phenyl]methyl]-1-oxa-4,9-diazaspiro[5.5]undecan-4-yl)pentyl]oxy]-2-(2,6-dioxopiperidin-3-yl)isoindole-1,3-dione formic acid]"
2,10 to 100,"COc1cc(-c2cn(C)c(=O)c3cnccc23)cc(OC)c1CN1CC(S(=O)(=O)NCCCCNc2ccc3c(c2)C(=O)N(C2CCC(=O)NC2=O)C3=O)C1 (centres unmarked) [Compound D22, 1-[[2,6-dimethoxy-4-(2-methyl-1-oxo-1,2-dihydro-2,7-naphthyridin-4-yl)phenyl]methyl]-N-(4-[[2-(2,6-dioxopiperidin-3-yl)-1,3-dioxo-2,3-dihydro-1H-isoindol-5-yl]amino]butyl) azetidine-3-sulfonamide formic acid]"
3,< 10,"COc1cc(-c2cn(C)c(=O)c3cnccc23)cc(OC)c1CN1CC[C@H]1C(=O)NCCCCCCCCNc1cccc2c1C(=O)N([C@H]1CCC(=O)NC1=O)C2=O [Compound D19, (2S)-1-((2,6-dimethoxy-4-(2-methyl-1-oxo-2,7-naphthyridin-4-yl)phenyl)methyl)-N-(8-((2-((S)-2,6-dioxopiperidin-3-yl)-1,3-dioxoisoindol-4-yl)amino)octyl) azetidine-2-carboxamide]"

row,SMILES,DC50 [nM]
1,"COc1cc(-c2cn(C)c(=O)c3cnccc23)cc(OC)c1CN1CCN(CCCCCOc2ccc3c(c2)C(=O)N(C2CCC(=O)NC2=O)C3=O)CC1 (centres unmarked) [Compound D44, 5-((5-(4-(2,6-dimethoxy-4-(2-methyl-1-oxo-1,2-dihydro-2,7-naphthyridin-4-yl)benzyl)piperazin-1-yl)pentyl)oxy)-2-(2,6-dioxopiperidin-3-yl)isoindoline-1,3-dione formic acid]",< 10
2,"COc1cc(-c2cn(C)c(=O)c3cnccc23)cc(OC)c1CN1CC2(CC(CCOc3ccc4c(c3)C(=O)N(C3CCC(=O)NC3=O)C4=O)C2)C1 (centres unmarked) [Compound D48, 5-(2-(2-(2,6-dimethoxy-4-(2-methyl-1-oxo-1,2-dihydro-2,7-naphthyridin-4-yl)benzyl)-2-azaspiro[3.3]heptan-6-yl)ethoxy)-2-(2,6-dioxopiperidin-3-yl)isoindoline-1,3-dione formic acid]",10 to 100

# Same assay, conditions: Table 5B; SYO-1 cells expressing 3×FLAG-NLuc-BRD9, 6 hours; read-out: SYO1 BRD9-NanoLuc degradation IC50
row,DC50 [nM],SMILES
1,< 10,COc1cc(-c2cn(C)c(=O)c3cnccc23)cc(OC)c1CN1CCC2(CC1)CN(C(=O)CCC#Cc1ccc3c(c1)C(=O)N(C1CCC(=O)NC1=O)C3=O)C2 (centres unmarked) [Compound D217]
2,< 10,C=CCn1cc(-c2cc(OC)c(CN3CC(CN4CCC5(CC4)CN(c4ccc6c(c4)C(=O)N(C4CCC(=O)NC4=O)C6=O)C5)C3)c(OC)c2)cc(C)c1=O (centres unmarked) [Compound D348]
3,< 10,COc1cc(-c2cn(C)c(=O)c3cnccc23)cc(OC)c1CN(C)C(=O)CCCCN1CC2(C1)CN(c1ccc3c(c1)C(=O)N(C1CCC(=O)NC1=O)C3=O)C2 (centres unmarked) [Compound D206]
4,< 10,COc1cc(-c2cn(C)c(=O)c3cnccc23)cc(OC)c1CN(C)CCCCN1CCC2(C1)CN(c1ccc3c(c1)C(=O)N(C1CCC(=O)NC1=O)C3=O)C2 (centres unmarked) [Compound D226]
5,100 to 1000,COc1cc(-c2cn(C)c(=O)c3cnccc23)cc(OC)c1CN1CC(CC(=O)N2CCC3(CCN(c4ccc5c(c4)C(=O)N(C4CCC(=O)NC4=O)C5=O)C3)C2)C1 (centres unmarked) [Compound D192]
6,< 10,COc1cc(-c2cn(C)c(=O)c3cnccc23)cc(OC)c1CN(C)C(=O)CCCCN1CC2(CCC(Oc3ccc4c(c3)C(=O)N(C3CCC(=O)NC3=O)C4=O)C2)C1 (centres unmarked) [Compound D207]
7,< 10,COc1cc(-c2cn(C)c(=O)c3cnccc23)cc(OC)c1CN(C)CCn1cc(COCCOc2ccc3c(c2)C(=O)N(C2CCC(=O)NC2=O)C3=O)nn1 (centres unmarked) [Compound D275]
8,< 10,COc1cc(-c2cn(C)c(=O)c3cnccc23)cc(OC)c1CN(C)CCn1cc(CCOc2ccc3c(c2)C(=O)N(C2CCC(=O)NC2=O)C3=O)nn1 (centres unmarked) [Compound D274]
9,100 to 1000,COc1cc(-c2cn(C)c(=O)c3cnccc23)cc(OC)c1CN(C)CCCn1cc(CN2CC(Oc3ccc4c(c3)C(=O)N(C3CCC(=O)NC3=O)C4=O)C2)nn1 (centres unmarked) [Compound D285]
10,< 10,COc1cc(-c2cn(C)c(=O)c3cnccc23)cc(OC)c1CN(C)C(=O)CCCCNC1CC12CCN(c1ccc3c(c1)C(=O)N(C1CCC(=O)NC1=O)C3=O)C2 (centres unmarked) [Compound D258]
11,< 10,COc1cc(-c2cn(C)c(=O)c3cnccc23)cc(OC)c1CN1CC(n2cc(CCOc3ccc4c(c3)C(=O)N(C3CCC(=O)NC3=O)C4=O)nn2)C1 (centres unmarked) [Compound D298]
12,< 10,COc1cc(-c2cn(C)c(=O)c3cnccc23)cc(OC)c1CN(C)CC(=O)NCCCCCOc1ccc(-c2ccc3c(c2)C(=O)N(C2CCC(=O)NC2=O)C3=O)cc1 (centres unmarked) [DD8]
13,< 10,COc1cc(-c2cn(C)c(=O)c3cnccc23)cc(OC)c1CN(C)CC(=O)NCCCCOc1ccc(-c2ccc3c(c2)C(=O)C(C2CCC(=O)NC2=O)C3=O)cc1 (centres unmarked) [DD7]
14,10 to 100,COc1cc(-c2cn(C)c(=O)c3cnccc23)cc(OC)c1CN1CC(CC(=O)N2CCC3C2CN3c2ccc3c(c2)C(=O)N(C2CCC(=O)NC2=O)C3=O)C1 (centres unmarked) [Compound D210]
15,< 10,COc1cc(-c2cn(C)c(=O)c3cnccc23)cc(OC)c1CN1CCC2(CC1)CN(CC#Cc1ccc3c(c1)C(=O)N(C1CCC(=O)NC1=O)C3=O)C2 (centres unmarked) [Compound D235]
16,< 10,COc1cc(-c2cn(C)c(=O)c3cnccc23)cc(OC)c1CN1CC2(CCN(C(=O)CCC#Cc3ccc4c(c3)C(=O)N(C3CCC(=O)NC3=O)C4=O)C2)C1 (centres unmarked) [Compound D218]
17,< 10,COc1cc(-c2cn(C)c(=O)c3cnccc23)cc(OC)c1CN1CC2(CCN(CC#Cc3ccc4c(c3)C(=O)N(C3CCC(=O)NC3=O)C4=O)CC2)C1 (centres unmarked) [Compound D307]
18,> 1000,COc1cc(-c2cn(C)c(=O)c(C#N)c2C)cc(OC)c1CN1CC(CN2CCC3(CC2)CN(c2ccc4c(c2)C(=O)N(C2CCC(=O)NC2=O)C4=O)C3)C1 (centres unmarked) [Compound D351]
19,< 10,COc1cc(-c2cn(C)c(=O)c3cnccc23)cc(OC)c1CN1CCC(n2cc(COc3ccc4c(c3)C(=O)N(C3CCC(=O)NC3=O)C4=O)nn2)CC1 (centres unmarked) [Compound D289]
20,< 10,COc1cc(-c2cn(C)c(=O)c3cnccc23)cc(OC)c1CN(C)CCCCN1CCCC2(CC(Oc3ccc4c(c3)C(=O)N([C@H]3CCC(=O)NC3=O)C4=O)C2)C1 (some centres unmarked) [Compound D246]
21,> 1000,COc1cc(-c2cnc(=O)n(C)c2)cc(OC)c1CN1CCN(CCC2CCN(c3ccc4c(c3)C(=O)N(C3CCC(=O)NC3=O)C4=O)CC2)CC1 (centres unmarked) [Compound D342]
22,< 10,COc1cc(-c2cn(C)c(=O)c3cnccc23)cc(OC)c1CN(C)CCCCN1CC2(C1)CN(c1ccc3c(c1)C(=O)N(C1CCC(=O)NC1=O)C3=O)C2 (centres unmarked) [Compound D254]
23,10 to 100,COc1cc(-c2cn(C)c(=O)c3cnccc23)cc(OC)c1CN(C)CCCCNC1CCC12CN(c1ccc3c(c1)C(=O)N(C1CCC(=O)NC1=O)C3=O)C2 (centres unmarked) [Compound D245]

# Same assay, conditions: Table 5C; SYO-1 cells expressing 3×FLAG-NLuc-BRD9, 6 hours; read-out: SYO1 BRD9-NanoLuc degradation IC50
row,DC50 [nM],SMILES
1,> 1000,COc1cc(-c2cn(C)c(=O)c3cnccc23)cc(OC)c1CN1CCC2(CC1)CN(c1ccc3c(c1)C(=O)N(C1CC(=O)NC(=O)C1)C3)C2 [Compound D474]
2,10 to 100,COc1cc(-c2cc(C(F)F)c(=O)n(C)c2)cc(OC)c1-c1ccc2c(c1)C(=O)N(C1CCC(=O)NC1=O)C2 (centres unmarked) [Compound D451]
3,> 1000,COc1cc(-c2c(C)n(C)c(=O)c3[nH]cc(C)c23)cc(OC)c1CN1CCC2(CC1)CN(c1ccc3c(c1)C(=O)N(C1CCC(=O)NC1=O)C3=O)C2 (centres unmarked) [Compound D445]
4,< 10,COc1cc(CN2CCC3(CC2)CN(c2ccc4c(c2)C(=O)N(C2CCC(=O)NC2=O)C4)C3)cc(-c2cn(C)c(=O)c3cnccc23)c1 (centres unmarked) [Compound D387]
5,< 10,COc1cc(-c2cc(C(F)F)c(=O)n(C)c2)cc(OC)c1CN1CCC2(C1)CN(c1ccc3c(c1)C(=O)N(C1CCC(=O)NC1=O)C3=O)C2 (centres unmarked) [Compound D406]
6,< 10,COc1cc(-c2cn(C)c(=O)c3cnn(C)c23)cc(OC)c1CN1CCC2(CC1)CN(c1ccc3c(c1)CN(C1CCC(=O)NC1=O)C3=O)C2 (centres unmarked) [Compound D411]
7,10 to 100,COc1cc(-c2cc(C(F)F)c(=O)n(C)c2)cc(OC)c1CN1CCC2(C1)CN(c1ccn3c(=O)n(C4CCC(=O)NC4=O)nc3c1)C2 (centres unmarked) [Compound D432]
8,10 to 100,COc1cc(-c2cc(C)c(=O)n(C)c2)cc(OC)c1CN1CC(Cc2ccc3c(c2)C(=O)N(C2CCC(=O)NC2=O)C3)C1 (centres unmarked) [Compound D449]
9,< 10,COc1cc(-c2cc(C)c(=O)n(C)c2C)cc(OC)c1CN1CCC2(C1)CN(c1ccc3c(c1)C(=O)N(C1CCC(=O)NC1=O)C3)C2 (centres unmarked) [Compound D396]
10,100 to 1000,COc1cc(-c2cn(C)c(=O)c3cnccc23)cc(OC)c1CN1CCC2(CC1)CN(c1ccnc(C(=O)NC3CCC(=O)NC3=O)n1)C2 (centres unmarked) [Compound D391]
11,< 10,COc1cc(-c2cn(C)c(=O)c3cn(OC)nc23)cc(OC)c1CN1CCC2(CC1)CN(c1ccc3c(c1)C(=O)N(C1CCC(=O)NC1=O)C3)C2 (centres unmarked) [Compound D462]
12,10 to 100,COc1cc(-c2cn(C)c(=O)c3cnccc23)cc(OC)c1CN1CCC(c2cnn(C3CCC(=O)NC3=O)c2)CC1 (centres unmarked) [Compound D393]
13,< 10,C=CCn1cc(-c2cc(OC)c(CN3CCC4(C3)CN(c3ccc5c(c3)C(=O)N(C3CCC(=O)NC3=O)C5)C4)c(OC)c2)cc(C(F)F)c1=O (centres unmarked) [Compound D404]
14,< 10,COc1cc(-c2cc(C)c(=O)n(C)c2)cc(OC)c1CN1CC(C#Cc2ccc3c(c2)C(=O)N(C2CCC(=O)NC2=O)C3)C1 (centres unmarked) [Compound D438]
15,> 1000,COc1cc(-c2cn(C)c(=O)c3cnccc23)cc(OC)c1CN1CCC2(CC1)CN(c1ccc3c(c1)C(=O)N(C1CCC(=O)NC1)C3)C2 (centres unmarked) [Compound D390]
16,< 10,COc1cc(-c2cn(C)c(=O)c3ccnn23)cc(OC)c1CN1CCC2(CC1)CN(c1ccc3c(c1)C(=O)N(C1CCC(=O)NC1=O)C3)C2 (centres unmarked) [Compound D456]
